Experimental data reported in patent US20090172831A1, “Methods for the production of plants resistant to HPPD herbicides” (Syngenta Limited, priority 2000, published 2009).
Read-outs that look alike come from different tables or passages of the source. Values belong to the molecule of their own block, whether it stands above or below them.

Experiments:
Wheat HPPD = Wheat HPPD (Triticum aestivum, UniProt A0A3B6NLC6); assay: Dissociation of enzyme/inhibitor complexes by exchange with 14C-labelled inhibitor (koff; Kd = koff/kon); format: binding; conditions: for koff: − glycerol
Wheat HPPD, sequence (A0A3B6NLC6 entry or part of it): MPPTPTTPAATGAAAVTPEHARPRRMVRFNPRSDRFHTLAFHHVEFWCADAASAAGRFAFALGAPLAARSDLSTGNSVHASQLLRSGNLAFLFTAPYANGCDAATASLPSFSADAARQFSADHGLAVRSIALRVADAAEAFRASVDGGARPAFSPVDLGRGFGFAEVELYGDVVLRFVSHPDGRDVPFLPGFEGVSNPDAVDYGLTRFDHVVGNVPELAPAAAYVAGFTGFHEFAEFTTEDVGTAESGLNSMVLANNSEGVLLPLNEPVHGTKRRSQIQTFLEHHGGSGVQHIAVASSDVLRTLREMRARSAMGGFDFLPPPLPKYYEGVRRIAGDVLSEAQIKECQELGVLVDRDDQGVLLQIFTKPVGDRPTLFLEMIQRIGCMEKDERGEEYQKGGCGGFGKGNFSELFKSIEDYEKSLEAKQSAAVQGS
Description: (§1) Herbicidal inhibitors of HPPD are found here to have generally low values of koff (in the range less than 0.0003 s^−1, often less than 0.000001 s^−1). It will be appreciated that many suitable methods known in the art for determining such low koff values are suitable for working the current invention. These include measuring rates of exchange of radio or otherwise labelled inhibitors either with or away from the enzyme inhibitor complex. For example enzyme inhibitor complexes can readily be prepared by incubating HPPD preparations with labelled or unlabelled inhibitor and then, after suitable periods, optionally rapidly separating the thus formed enzyme inhibitor complex from excess inhibitor by any suitable method such as ultrafiltration, binding to filters or exchange down a gel filtration column. Exchange reactions with the, thus prepared enzyme inhibitor complex is then initiated by addition of, as appropriate, excess labelled or unlabelled inhibitor. HPPD preparations suitable for use in the methods of the current invention are relatively unpurified, buffer-exchanged, supernatant fractions of spun crude lysates of E. coli strains engineered to express the HPPD enzyme of interest at a level of, typically, about 0.25-10% of the total soluble protein. Many methods such as radiometric, fluorimetric, NMR, fluorescence depolarisation, EPR, Mossbauer, UV/VIS spectrophotometry etc. or phonon resonance can, in principle, be used to monitor the enzyme/ligand exchange reactions and, particularly in this case where the enzyme contains an iron atom at the ligand binding site. Optionally, the monitoring method may be continuous (as, for example, with scintillation proximity/bead-based methods) or, discontinuous, based upon collection of data at various timepoints wherein samples are removed and the bound and unbound label components rapidly separated and quantitated.
(§2) Values of koff can suitably be calculated by computer fitting based upon is numerical integration of the exchange data along with information on the active-site concentration of HPPD and upon kon values obtained as described below. […] In any event, koff values are always here calculated from the rate of the major slow exchange reaction. It will be appreciated that within the scope of the current invention many methods of making the desired kinetic comparisons are possible without explicit or rigorous determination of off rates but, based upon the same underlying principle, will achieve the same selection result.
The dissociation rates (off rates) of inhibitors selected from Formula 1 and/or 2 and/or 3 and/or 4 from the complexes that they form with test and control HPPD enzymes are suitably measured in a number of ways. Thus, for example, the rates of dissociation of mesotrione, a compound selected from Formula 1 and of the diketonitrile of isoxaflutole, a compound selected from Formula 3 from their respective complexes with, test, wheat HPPD and with, control, Arabidopsis HPPD are compared. The method and results from a typical test are as follows.
^14C mesotrione is of specific activity 1.12 GBq/mmol. This is ˜95% pure radiochemically by TLC and based upon the proportion of material tight-binding to HPPD. Arabidopsis and, (test), wheat HPPD are each diluted to a concentration of ˜0.45 and 0.54 μM, respectively into 1.6 ml of 50 mM Bis-Tris propane buffer at pH 7.0 containing 25% glycerol, 25 mM sodium ascorbate and 3 mg/l of bovine catalase (Sigma C3155˜50,000 units/mg) containing […] ^14C mesotrione and left to react at 25 C for 2.5-3 h. Following this initial binding reaction, exchange reactions are initiated by addition of cold mesotrione to a final concentration of 60 μM and 200 μl aliquots removed at various times to rapid chromatography down a NAP5 gel filtration column equilibrated in 50 mM BTP at pH 7 containing 0.1 M KCl, separation into fractions containing protein-bound or free radiolabel and liquid scintillation counting. […]

Arabidopsis HPPD [1] = target: T1, Arabidopsis HPPD (Arabidopsis thaliana, UniProt P93836); assay: as above; format: binding; conditions: for koff: − glycerol
T1 construct: made in house; host or cells: E. coli BL21 (DE3) codon+ RP
T1 sequence (P93836 1-445): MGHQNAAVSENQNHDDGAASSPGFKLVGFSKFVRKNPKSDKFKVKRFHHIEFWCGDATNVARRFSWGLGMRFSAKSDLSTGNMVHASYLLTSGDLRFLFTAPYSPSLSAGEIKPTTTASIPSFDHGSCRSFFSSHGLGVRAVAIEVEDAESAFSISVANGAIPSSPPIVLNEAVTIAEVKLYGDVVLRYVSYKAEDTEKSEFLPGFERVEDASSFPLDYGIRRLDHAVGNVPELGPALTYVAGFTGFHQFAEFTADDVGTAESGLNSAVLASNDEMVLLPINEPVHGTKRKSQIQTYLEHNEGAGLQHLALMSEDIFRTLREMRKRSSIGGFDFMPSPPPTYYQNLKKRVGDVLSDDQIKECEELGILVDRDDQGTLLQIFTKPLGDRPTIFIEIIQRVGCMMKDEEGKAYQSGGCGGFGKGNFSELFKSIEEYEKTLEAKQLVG
Procedure: as §1, with “It” for “Herbicidal inhibitors of HPPD are found here to have generally low values of koff (in the range less than 0.0003 s^−1, often less than 0.000001 s^−1). It”, “HPPD preparations suitable for use in the methods of the current invention are relatively unpurified, buffer-exchanged, supernatant fractions of spun crude lysates of E. coli strains engineered to express the HPPD enzyme of interest at a level of, typically, about 0.25-10% of the total soluble protein.” left out
Values of koff can suitably be calculated by computer fitting based upon is numerical integration of the exchange data along with information on the active-site concentration of HPPD and upon kon values obtained as described below. […] In any event, koff values are always here calculated from the rate of the major slow exchange reaction.
^14C mesotrione is of specific activity 1.12 GBq/mmol. […] Following this initial binding reaction, exchange reactions are initiated by addition of cold mesotrione to a final concentration of 60 μM and 200 μl aliquots removed at various times to rapid chromatography down a NAP5 gel filtration column equilibrated in 50 mM BTP at pH 7 containing 0.1 M KCl, separation into fractions containing protein-bound or free radiolabel and liquid scintillation counting.
Nevertheless, here, for practical purposes, koff values are always here calculated from the rate of the major slow exchange reaction.
Not all test inhibitors are readily available in a radiolabelled form.

P. fluorescens HPPD = P. fluorescens HPPD (Pseudomonas fluorescens, UniProt A0ACG8AE61); assay: as above; format: binding
P. fluorescens HPPD, sequence (A0ACG8AE61 entry or part of it): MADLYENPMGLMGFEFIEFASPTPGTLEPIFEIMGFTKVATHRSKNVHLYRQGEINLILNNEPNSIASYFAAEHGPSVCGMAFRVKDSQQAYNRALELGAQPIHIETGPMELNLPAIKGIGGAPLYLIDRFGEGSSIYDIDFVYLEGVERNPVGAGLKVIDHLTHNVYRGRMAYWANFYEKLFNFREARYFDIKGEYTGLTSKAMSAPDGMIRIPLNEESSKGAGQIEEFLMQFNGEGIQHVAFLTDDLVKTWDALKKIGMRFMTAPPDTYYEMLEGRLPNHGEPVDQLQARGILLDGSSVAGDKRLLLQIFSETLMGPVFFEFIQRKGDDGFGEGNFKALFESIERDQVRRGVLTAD
Description: as §1
as §2, with “result. […]” for “result.”
Not all test inhibitors are readily available in a radiolabelled form. A more general method of measuring off rates is to first form the complex with unlabelled test inhibitor, to rapidly exchange the complex free of excess unlabelled inhibitor and to then start the exchange reaction by addition of an excess of a standard labelled inhibitor, the kinetic properties of which are already known. The reaction is then monitored and the relative proportions of bound and unbound label determined at various times. […] The latter is the method of choice when the rate of exchange is fast (t½<3 h).
In, variants of the above methods, off rates are measured either in the presence or absence of ˜25% v/v glycerol. In the presence of glycerol values obtained are generally ˜1.5-3× slower than in its absence although sometimes the change is outside this range or, even, in the other direction. Further examples of data obtained are depicted in the following Table 3.
Crude Extracts of recombinant E. coli strains expressing, in the one case, a control HPPD (from Arabidopsis) and, in the other, one or more test HPPD sequences are prepared as described in the preceding example. The titre of active sites and enzyme activity are also defined and measured as described in the preceding examples. […]

Arabidopsis HPPD [2] = target: T1, Arabidopsis HPPD; assay: Inhibition of HPPD (E. coli extract) after pre-incubation with inhibitor; format: biochemical; conditions: read-out: inhibition (relative to controls)
Procedure: (§3) Qualitative measurements of the differences in Kd values in respect of different HPPD inhibitors are obtained by pre-incubating enzyme with inhibitor and, then, subsequently, measuring the % inhibition. For example HPPD is isolated from maize seedlings, part purified and assayed by similar methods to those described by Schulz et al 1993 (FEBS LETS. 318, 162-166) and by Secor (1994) in Plant Physiol. 106, 1429-1433. Assays are run for 30 minutes and started with addition of radiolabelled hydroxyphenylpyruvate (final concentration ˜0.1-0.2 mM) following a 20-30 min period over which inhibitor is pre-incubated with the part-purified enzyme.
Using the same assay method but using HPPD from Arabidopis (obtained from E. coli cells transformed to express the Arabidopsis HPPD and prepared as an E. coli extract similar to the methods described by Garcia et al in Plant Physiol (1999) 119, 1507-1516) the following levels of inhibition (relative to controls) are observed with the following doses of herbicide versus Arabidopsis HPPD.

maize HPPD = assay: Inhibition of part purified HPPD after pre-incubation with inhibitor; format: biochemical
Procedure: as §3
The following levels of inhibition (relative to controls) are observed with the following doses of herbicide versus maize HPPD

[3] = value obtained + glycerol (in parentheses), read-out: Kd
[4] = without glycerol, Kd = koff/kon, read-out: Kd
[5] = Kd, without glycerol, Kd = koff/kon

koff (Wheat HPPD; read-out: koff): > 0.0002 s⁻¹ | koff (Arabidopsis HPPD [1]): 1.1e-05 s⁻¹
SMILES: CCOCc1nc(C(F)(F)F)ccc1C(=O)C1C(=O)C2CCC(C2)C1=O (stereo not shown) [Structure III, 3-[[2-(ethoxymethyl)-6-(trifluoromethyl)-3-pyridinyl]carbonyl]-bicyclo[3.2.1]-octane-2,4-dione]

SMILES: CS(=O)(=O)c1cc(C(F)(F)F)ccc1C(=O)C(C#N)C(=O)C1CC1 (stereo not shown) [Structure IV, 1-[2-(methanesulfonyl)-4-(trifluoromethyl)phenyl]-3-cyclopropyl-2-cyano-propane-1,3-dione, reference compound]
Kd (P. fluorescens HPPD; in water at pH 7.0 and at 25 C, read-out: dissociation constant (Kd)): 12.2 nM | Kd (P. fluorescens HPPD; [3]): 1.1 nM | Kd (P. fluorescens HPPD; [4]): 12.2 nM | inhibition at 0.001 µM (Arabidopsis HPPD [2]; 1 nM): 20% | inhibition at 0.01 µM (Arabidopsis HPPD [2]; 10 nM): 90% | inhibition at 0.1 µM (Arabidopsis HPPD [2]; 100 nM): 95% | inhibition at 1 µM (Arabidopsis HPPD [2]; 1000 nM): 95% | Kd (Wheat HPPD; [3]): 0.596 nM | Kd (Wheat HPPD; [4]): 0.885 nM

SMILES: Cc1cc(C#N)ccc1C(=O)C1C(=O)C(C)(C)C(=O)C(C)(C)C1=O [Structure VI, 2-[2-methyl-4-cyanobenzoyl]-4,4,6,6-tetramethylcyclohexane-1,3,5-trione]
Kd (P. fluorescens HPPD; [4]): > 20 nM | Kd (Wheat HPPD; [5]): 0.45 nM | Kd (Arabidopsis HPPD [1]): 0.025 nM

SMILES: Cc1nc(C(F)(F)F)ccc1C(=O)C1C(=O)C(C)(C)C(=O)C(C)(C)C1=O [Structure VII, 3-[[2-methyl-6-(trifluoromethyl)-3-pyridinyl]carbonyl]-4,4,6,6-tetramethylcyclohexane-1,3,5-trione]
koff (P. fluorescens HPPD; − glycerol): > 0.0003 s⁻¹ | Kd (Wheat HPPD; [5]): 0.175 nM | koff (Wheat HPPD): 8.3e-06 s⁻¹ | Kd (Arabidopsis HPPD [1]): 0.032 nM | koff (Arabidopsis HPPD [1]): 1e-06 s⁻¹

strength of inhibition (Arabidopsis HPPD [1]; used for pre-incubation in control experiments): weak inhibitor
SMILES: CCC1CC(=O)C(C(=O)C2CC2)C(=O)C1(C)S(C)(=O)=O (stereo not shown) [Structure VIII, 2-[cyclopropylcarbonyl]-5-ethyl-4-methanesulfonyl-4-methylcyclohexane-1,3-dione]

SMILES: CS(=O)(=O)c1ccc(C(=O)C2C(=O)CCCC2=O)c(Cl)c1 [sulcotrione, 2-(2-Chloro-4-methanesulphonylbenzoyl)-cyclohexane-1,3-dione]
fold less active against the maize enzyme than structure IV (maize HPPD): ~100 fold | inhibition (relative to controls) (maize HPPD; 10 nM): 8% | inhibition (relative to controls) (maize HPPD; 100 nM): 51% | inhibition (relative to controls) (maize HPPD; 1000 nM): 83% | inhibition at 0.001 µM (Arabidopsis HPPD [2]): 57% | inhibition at 0.01 µM (Arabidopsis HPPD [2]): 96% | inhibition at 0.1 µM (Arabidopsis HPPD [2]): 100% | inhibition at 1 µM (Arabidopsis HPPD [2]): 100%
